According to article PMC9307952, “Lipoate protein ligase B primarily recognizes the C8-phosphopantetheine arm of its donor substrate and weakly binds the acyl carrier protein” (The Journal of Biological Chemistry, 2022):

Assays:
E. coli LipB (EcLipB) [1] = target: T1, E. coli LipB (EcLipB) (Escherichia coli, UniProt P60720, K135A/C169A); conditions: CoA:LipB 10:1, 50 mM Tris, 200 mM NaCl, pH 7.8, 283 K
E. coli LipB (EcLipB) [2] = target: E. coli LipB (EcLipB) (Escherichia coli, UniProt P60720, G72A/G73A); conditions: CoA:LipB 10:1 (STD, 283 K) or 8:1 (31P, 298 K), 50 mM Tris, 200 mM NaCl, pH 7.8
E. coli LipB (EcLipB) [3] = target: E. coli LipB (EcLipB) (Escherichia coli, UniProt P60720, C169A); conditions: CoA:LipB 8:1, 50 mM Tris, 200 mM NaCl, pH 7.8, 298 K
E. coli LipB (EcLipB) [4] = target: E. coli LipB (EcLipB) (Escherichia coli, UniProt P60720, R71A); conditions: CoA:LipB 10:1, 50 mM Tris, 200 mM NaCl, pH 7.8, 283 K
E. coli LipB (EcLipB) [5] = target: T1, E. coli LipB (EcLipB); conditions: 15N-labelled inactive double mutant, C8-CoA up to 1:2 molar ratio

Structure (SMILES) | 1H STD NMR (E. coli LipB (EcLipB) [1]) | 1H STD NMR; 31P NMR (E. coli LipB (EcLipB) [2]) | 31P NMR (E. coli LipB (EcLipB) [3]) | 1H STD NMR (E. coli LipB (EcLipB) [4]) | 15N TROSY-HSQC NMR titration (E. coli LipB (EcLipB) [5])
CC(C)(COP(=O)(O)OP(=O)(O)OC[C@H]1O[C@@H](n2cnc3c(N)ncnc32)[C@H](O)[C@@H]1OP(=O)(O)O)[C@@H](O)C(=O)NCCC(=O)NCCS [CoA] | STD spectra for CoA in the presence of WT LipB, LipBK135A/C169A (catalytically inactive double mutant) | visible in both the spectra, suggesting binding of CoA with the mutants | upfield change in chemical shift upon addition of WT LipB | visible in both the spectra, suggesting binding of CoA with the mutants | 
CCCCCCCC(=O)SCCNC(=O)CCNC(=O)[C@H](O)C(C)(C)COP(=O)(O)OP(=O)(O)OC[C@H]1O[C@@H](n2cnc3c(N)ncnc32)[C@H](O)[C@@H]1OP(=O)(O)O [C8-CoA] |  |  |  |  | The pattern of amide perturbations though confirmed that E. coli LipB binds C8-CoA
